# Measured values as given in patent publication US20040235900A1, “Antimicrobial oxazolifinones with improved pharmacokinetic profile and safety advantages” (priority 2002, published 2004).
# Tests used:
# [1] = Pharmacokinetic study, single oral dose in beagle dog; type: in vivo; conditions: serum, single oral dose 5 mg/kg p.o., Compound No. 4 and linezolid in 5% Tween, other compounds in cyclodextrin; for AUC(0-t): read-out: AUC (0-24 hr); for concentration at 12 hr: read-out: C-12 hr
# Method: (§1) Oral (5 mg/kg) and intravenous (5 mg/kg bolus) pharmacokinetic studies were done in dog. Blood samples were collected at time points of 0, 0.08 (not for oral), 0.25, 0.50, 1.0, 1.5, 2.0, 3.0, 4.0, 5.0, 6.0, 8.0, 10.0, 12.0 and 24.0 hours. To facilitate i.v. dosing and collection of blood samples, the dogs were implanted with cannula in cephalic vein. Serum obtained from blood samples was used for HPLC-based analysis.
# (§2) Serum samples were extracted by solid phase extraction technique using Water's OASIS HLB cartridges. An HPLC-Diode array detection system was used for analysis. Prepared samples were chromatographed on a YMC-AM reversed phase column (150×4.6 mm ID; 5 μm) using an isocratic mobile phase acetate buffer (50 mmol ammonium acetate pH 6.6) acetonitrile, 66:34% v/v (for a representative compound of the invention, 68:32% v/v for compound Nos. 30, 3, 7 and 11 of U.S. Pat. No. 5,668,286, and 75:25% v/v for linezolid) at a flow rate of 1 ml/min, measured at λmax 254 nm. Independently prepared analytical standards and quality control samples were analyzed with each set of unknown samples.
# The pharmacokinetics of a representative compound of the invention following single oral dose administration of the compound in beagle dog is shown in Table 2.
# [2] = Pharmacokinetic study, single I.V. bolus dose in beagle dog; type: in vivo; conditions: iv, single I.V. bolus dose 15 mg/kg (table title), Compound No. 4 and linezolid in 5% Tween, other compounds in cyclodextrin, serum; for concentration at 12 hr: read-out: C-12 hr; for AUC(0-t): read-out: AUC (0-24 hr)
# Method: as §1, with “Blood” for “Oral (5 mg/kg) and intravenous (5 mg/kg bolus) pharmacokinetic studies were done in dog. Blood”
# as §2
# The pharmacokinetics of a representative compound of the invention following single I.V. bolus dose administration of the compound in beagle dog is shown in Table 3.
# [3] = tested on: Enterococcus faecalis ATCC 29212; test: In-vitro MIC test (agar dilution), E. faecalis; type: cell-based; conditions: ATCC29212, Mueller Hinton agar, 24 hrs at 35° C., read-out: Minimum Inhibitory Concentrations (MIC) E. faecalis
# Source text: (§3) The test methods used for verifying the antimicrobial action of compound within the scope of this invention are essentially the same as those described in PCT WO 95/25106, U.S. Pat. No. 5,668,286 and EP 0 750, 618 B1, with the difference that the strains of the organisms used for the MIC determinations in these patents and applications are Staphylococcus aureus ATCC 25923, Staphylococcus epidermidis ATCC 12828, Streptococcus pyogenes ATCC 19615.
# (§4) The in-vitro MIC methods of test compounds were determined essentially as described in PCT WO 95/25106, U.S. Pat. No. 5,668,286 and EP 0 750 618 B1.
# (§5) Overnight grown cultures of S. aureus organisms in Tryptic Soya broth were diluted in Mueller Hinton Broth to give optical density matching with MacFarland tube 0.5 standard. Cultures were further diluted 1:10 in Mueller Hinton broth. Using Denley's mutipoint inoculator, 10^4 cells were deposited on Mueller Hinton agar (Difco) containing range of 2 fold dilutions of test compounds. These plates were incubated for 24 hrs at 35° C. and MIC results recorded. MIC is defined as minimum drug concentration that inhibits test organisms. For determining MIC of test compounds against Streptococcus pneumoniae, Mueller Hinton agar containing 5% sheep blood was employed.
# [4] = tested on: Methicillin Resistant Staphylococcus aureus MRSA-32; test: In-vitro MIC test (agar dilution), MRSA-32; type: cell-based; conditions: Mueller Hinton agar, 24 hrs at 35° C.; for MIC: Staphylococcus aureus, MRSA, read-out: Minimum Inhibitory Concentrations (MIC) MRSA-32
# Source text: as §3, §4, §5
# [5] = tested on: Streptococcus pneumoniae ATCC 49619; test: In-vitro MIC test (agar dilution, 5% sheep blood), S. pneumoniae; type: cell-based; conditions: ATCC49619, Mueller Hinton agar containing 5% sheep blood, read-out: Minimum Inhibitory Concentrations (MIC) S. pneumoniae
# Source text: as §3, §4, §5
# MRSA 32 = test: Murine assay procedure (systemic MRSA 32 infection, oral treatment); type: in vivo, swiss mice; conditions: Staphylococcus aureus; oral administration, doses 1 hr and 4 hrs after infection; MRSA 32 infected mice; percentage survival on Day 7
# Method: Oxazolidinone new chemical entities (NCEs) were evaluated for their in vivo efficacy in a murine infection caused by multi-drug resistant, methicillin resistant Staphylococcus aureus strain, referred to as MRSA 32, a clinical isolate obtained from a hospitalised patient. The procedure used for the murine assay is as follows:
# Four weeks old swiss mice of 18-22 gm body weight were infected with MRSA 32 strain suspended in 5% Hog gastric Mucin. The infecting dose of bacteria was set at 1-2×10^8 CFU/animal. The infecting dose was administered in 0.5 ml volume injected into peritonial cavity of mice. The treatment with oxazolidinone NCEs was started one hour after infection by administering 100-200 μl of the suspensions of oxazolidinone compounds in 5% Tween 80 by oral gavage. A repeat dose was similarly administered 3 hrs later. Each oxazolidinone NCE was tested at 2-3 different dosages in the range of 2.5 mg/kg to 20 mg/kg. In each dose group 6 mice were included. As an infection control group 12 mice were infected with MRSA 32 strain without giving any treatment. Normally untreated infected mice die within 24 hrs. due to the systemic spread of infection through out the animal body. […] For compounds affording protection of MRSA infected mice, ED50 dosages were calculated on the basis of percentage survival on Day 7 after infection.
# The in-vivo ED50 values using the test compounds were determined essentially by the method as described in PCT WO 95/25106, U.S. Pat. No. 5,668,286 and EP 0 750 618 B1.
MIC [3] [µg/mL],MIC [4] [µg/mL],MIC [5] [µg/mL],melting point [°C],SMILES,further results
,,,,"CC(=O)NC[C@H]1CN(c2ccc(N3CCC(O)CC3)c(F)c2)C(=O)O1 [U.S. Pat. No. 5,668,286 (No. 3), (S)-N-{3-[3-fluoro-4-(4-hydroxy-piperidin-1-yl)-phenyl]-2-oxo-oxazolidin-5-ylmethyl}-acetamide]",half-life [1]: 1.37 h; AUC(0-t) [1]: 2740 ng·h/mL; Cmax [1]: 1520 ng/mL; concentration at 12 hr [1]: 0 ng/mL; Cmax [2]: 6190 ng/mL; concentration at 12 hr [2]: 0 ng/mL; half-life [2]: 0.98 h; AUC(0-t) [2]: 7530 ng·h/mL
2,2,1,223 to 225,"CC(=O)NC[C@H]1CN(c2ccc(N3CCC(C(C#N)C#N)CC3)c(F)c2)C(=O)O1 [Compound 19, (S)-N-{3-[4-(4-(1,1-dicyanomethyl)-piperidin-1-yl)-3-fluoro-phenyl]-2-oxo-oxazolidin-5-ylmethyl}-acetamide]",
2,2,2,148 to 149,"CC(=O)NC[C@H]1CN(c2ccc(N3CCC(CC#N)C(C)C3)c(F)c2)C(=O)O1 (stereo partly drawn) [Compound 12, (S)-N-{3-[4-((4-cyanomethyl)-3-methyl-piperidin-1-yl)-3-fluoro-phenyl]-2-oxo-oxazolidin-5-ylmethyl}-acetamide]",
,,,,"CC(=O)NC[C@H]1CN(c2ccc(N3CCC(=NO)CC3)c(F)c2)C(=O)O1 [U.S. Pat. No. 5,668,286 (No. 11), (S)-N-{3-[3-fluoro-4-(4-hydroxyimino-piperidin-1-yl)-phenyl]-2-oxo-oxazolidin-5-ylmethyl}-acetamide]",concentration at 12 hr [1]: 0 ng/mL; Cmax [2]: 4150 ng/mL; concentration at 12 hr [2]: 0 ng/mL; half-life [2]: 0.16 h; AUC(0-t) [2]: 1320 ng·h/mL
4,4,4,180 to 182,"CCCC(C#N)C1CCN(c2ccc(N3C[C@H](CNC(C)=O)OC3=O)cc2F)CC1 (stereo partly drawn) [Compound 16, (S)-N-{3-[4-(4-(1-cyanobutyl)-piperidin-1-yl)-3-fluoro-phenyl]-2-oxo-oxazolidin-5-ylmethyl}-acetamide]",
,,,,"CC(=O)NC[C@H]1CN(c2ccc(N3CCC(=O)CC3)c(F)c2)C(=O)O1 [U.S. Pat. No. 5,668,286 (No. 7), (S)-N-{3-[3-fluoro-4-(4-oxo-piperidin-1-yl)-phenyl]-2-oxo-oxazolidin-5-ylmethyl}-acetamide]",concentration at 12 hr [1]: 0 ng/mL; concentration at 12 hr [2]: 0 ng/mL
,,,,"CC(C)COC(=O)NC[C@H]1CN(c2ccc(N3CCC(CC#N)CC3)c(F)c2)C(=O)O1 [Compound 10, (S)-N-{3-[4-(4-cyanomethyl-piperidin-1-yl)-3-fluoro-phenyl]-2-oxo-oxazolidin-5-ylmethyl}-isobutylcarbamate]",Minimum Inhibitory Concentrations (MIC) MRSA-32 [4]: >16.0 µg/mL
,,,198 to 200,"CC(=O)NC[C@H]1CN(c2ccc(N3CCC(C(C#N)C(=O)O)CC3)c(F)c2)C(=O)O1 (stereo partly drawn) [Compound 18, (S)-N-{3-[4-(4-(1-cyano-1-hydroxycarbonyl)-piperidin-1-yl)-3-fluoro-phenyl]-2-oxo-oxazolidin-5-ylmethyl}-acetamide]",
2,2,2,147 to 148,"CC(=O)NC[C@H]1CN(c2ccc(N3CCC(C(C)C#N)CC3)c(F)c2)C(=O)O1 (stereo partly drawn) [Compound 14, (S)-N-{3-[4-(4-(1-cyanoethyl)-piperidin-1-yl)-3-fluoro-phenyl]-2-oxo-oxazolidin-5-ylmethyl}-acetamide]",
,,,,"CC(=O)NC[C@H]1CN(c2ccc(N3CCC4(CC3)OCCO4)c(F)c2)C(=O)O1 [U.S. Pat. No. 5,668,286 (No. 30), (S)-N-{3-[4-(1,4-dioxa-8-aza-spiro[4.5]dec-8-yl)-3-fluoro-phenyl]-2-oxo-oxazolidin-5-ylmethyl}-acetamide]",half-life [1]: 6.68 h; AUC(0-t) [1]: 47200 ng·h/mL; Cmax [1]: 5310 ng/mL; concentration at 12 hr [1]: 1840 ng/mL; Cmax [2]: 7640 ng/mL; concentration at 12 hr [2]: 1190 ng/mL; half-life [2]: 6.71 h; AUC(0-t) [2]: 45100 ng·h/mL
2,2,2,182 to 184,"CC(=O)NC[C@H]1CN(c2ccc(N3CCC(C(C#N)CO)CC3)c(F)c2)C(=O)O1 (stereo partly drawn) [Compound 17, (S)-N-{3-[4-(4-(1-cyano-2-hydroxyethyl)-piperidin-1-yl)-3-fluoro-phenyl]-2-oxo-oxazolidin-5-ylmethyl}-acetamide]",ED50 (MRSA 32): 20 mg/kg
8,4,2,,"N#CCC1CCN(c2ccc(N3C[C@H](CNC(=O)C(F)(F)F)OC3=O)cc2F)CC1 [Compound 8, (S)-N-{3-[4-(4-cyanomethyl-piperidin-1-yl)-3-fluoro-phenyl]-2-oxo-oxazolidin-5-ylmethyl}-trifluoroacetamide]",
4,4,2,185 to 186,"CCC(C#N)C1CCN(c2ccc(N3C[C@H](CNC(C)=O)OC3=O)cc2F)CC1 (stereo partly drawn) [Compound 15, (S)-N-{3-[4-(4-(1-cyanopropyl)-piperidin-1-yl)-3-fluoro-phenyl]-2-oxo-oxazolidin-5-ylmethyl}-acetamide]",
2,2,2,,"CC(=O)NC[C@H]1CN(c2ccc(N3CCC(CC#N)CC3)cc2)C(=O)O1 [Compound 2, (S)-N-{3-[4-(4-cyanomethyl-piperidin-1-yl)-phenyl]-2-oxo-oxazolidin-5-ylmethyl}-acetamide]",ED50 (MRSA 32): 20 mg/kg
